{
  "source": "paper doi:10.1101/2023.04.05.535784v2",
  "about": "(bioRxiv, 2023)",
  "key": {"[1]": {"test_system": "thrombus formation in the lung", "conditions": "mice, oral, three consecutive days"}, "THP-1 cells": {"test_system": "THP-1 cells", "conditions": "cited from earlier work"}},
  "note": "Positions of bridges follow the written chain, without caps; N, C: chain ends. Residues, ends and D or L forms follow the SMILES beside them.",
  "data": [
    {"compound": "CC(C)C[C@@H]1NC(=O)[C@@H]2CSSC[C@@H]3NC(=O)[C@H](Cc4c[nH]c5ccccc45)NC(=O)[C@H](C)NC(=O)CNC(=O)CNC(=O)[C@H](CO)NC(=O)[C@H](CCCCN)NC(=O)[C@@H](N)CSSC[C@@H]4NC(=O)[C@H](CSSC[C@H](NC(=O)[C@H](Cc5ccccc5)NC(=O)CNC(=O)[C@H](C(C)C)NC1=O)C(=O)N[C@@H](Cc1ccc(O)cc1)C(=O)NCC(=O)N[C@@H]([C@@H](C)O)C(=O)NCC(=O)N[C@H](C(=O)O)CSSC[C@H](NC(=O)[C@H](CC(N)=O)NC(=O)CNC4=O)C(=O)NCC(=O)N2)NC(=O)CNC(=O)[C@H](Cc1c[nH]cn1)NC(=O)[C@@H]1CCCN1C(=O)[C@H](CC(=O)O)NC(=O)[C@H](Cc1ccccc1)NC(=O)CNC3=O", "note": "[ginsentide TP1] (H-CKSGGAWCGFDPHGCCGNCGCLVGFCYGTGC-OH; disulfide 1-16, 8-21, 15-26, 19-31)", "values": [
      {"measurement": "thrombus formation in the lung compared to control, 30 mg/kg", "setting": "[1]", "value": "significantly reduced"},
      {"measurement": "increase in IL-6, IL-8, IL-10, and TNFα", "setting": "THP-1 cells", "value": "no observable increase"}
    ]}
  ]
}
